# Measurements taken from PMC9781803, “Phenotypic and Target-Directed Screening Yields New Acaricidal Alternatives for the Control of Ticks” (Molecules, 2022).
# Like-named read-outs stand apart in the source and are kept apart here.
# How the values were obtained:
# [1] = target: R. microplus triosephosphate isomerase (RmTIM) (Rhipicephalus microplus, UniProt A8B3A8); experiment: biochemical; settings: for inhibition at 100 µM / inhibition at 10 µM: 1 h incubation, read-out: % Inhibition of Enzymatic Activity of RmTIM; for IC50: RmTIM
# Sequence of R. microplus triosephosphate isomerase (RmTIM) (A8B3A8 entry or part of it): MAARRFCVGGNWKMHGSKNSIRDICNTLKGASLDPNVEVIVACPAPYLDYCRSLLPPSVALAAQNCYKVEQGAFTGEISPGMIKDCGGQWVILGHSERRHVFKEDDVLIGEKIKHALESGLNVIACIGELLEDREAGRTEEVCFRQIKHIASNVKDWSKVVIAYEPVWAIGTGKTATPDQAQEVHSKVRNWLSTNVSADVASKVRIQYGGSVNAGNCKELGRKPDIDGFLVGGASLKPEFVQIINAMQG
# Protocol: (§1) R. microplus triosephosphate isomerase (RmTIM) and Homo sapiens triosephosphate isomerase (HsTIM) were expressed in Escherichia coli, and purified as previously described in the literature. Protein concentration was determined by absorbance measurements at 280 nm for RmTIM (ε = 33440 M^−1cm^−1) and HsTIM (ε = 33460 M^−1cm^−1). Enzymatic activity was determined following the reaction of the conversion of glyceraldehyde-3-phosphate to dihydroxyacetone phosphate in a coupled enzyme assay using α-glycerol-phosphate dehydrogenase. The decrease in absorbance at 340 nm was recorded in a multiplate reader Varioskan™ Flash Multimode Reader (Thermo Scientific^TM, Waltham, MA, USA) at 25 °C. The reaction mixture ([…], pH 7.4) contained 100 mM triethanolamine, 10 mM EDTA, 0.2 mM NADH, 1 mM glyceraldehyde-3-phosphate, and 0.9 units of α-glycerol-phosphate dehydrogenase. The reaction was initiated by the addition of 5 ng/mL of the TIM of interest. For the inhibition studies (incubation mixture), TIM was incubated at a concentration of 5 mg/mL in a buffer of pH 7.4 containing 100 mM triethanolamine, 10 mM EDTA, and 10% DMSO at 25 °C for 1 h. The mixture also contained the compounds, dissolved in DMSO, at final concentrations of 10 and 100 μM. After 1 h, 10 μL of the incubation mixture was added to the reaction mixture, to a final volume of 100 μL in a 96-well plate. None of the molecules tested here affected the activity of α-glycerol-phosphate dehydrogenase (checked in situ on the reaction mixture inhibited, with the addition of fresh α-glycerol-phosphate dehydrogenase and running the measurement again). The IC50 value was taken as the concentration of drug needed to reduce the enzymatic activity by 50%, and was analyzed using OriginLab 8.5 Corporation, Northampton, MA, USA, sigmoidal regression (% of enzymatic activity vs. the logarithm of the compound concentration). The tests were performed in triplicate in two independent experiments.
# [2] = system: J774.1 murine macrophages; experiment: Cytotoxicity assay on murine macrophages (MTT); type: cell-based; settings: for EC50: read-out: EC50 (µM) for Mammalian Cells; for IC50: J774.1, 48 h, read-out: IC50 (µM) Mammalian Cells
# Protocol: J774.1 murine macrophages (ATCC, Rockville, MD, USA) were grown in a DMEM culture medium containing 4 mM L-glutamine, and supplemented with 10% FCS. The cells were seeded into a 96-well plate (5 × 10^4 cells in 200 µL culture medium) and incubated at 37 °C in a 5% CO2 atmosphere for 48 h, to allow cell adhesion before drug testing. Afterward, the cells were exposed for 48 h to the compounds (25–400 μM) or the vehicle (0.4% DMSO), and additional controls (cells in medium) were used in each test. Cell viability was then assessed by measuring the mitochondria-dependent reduction of MTT to formazan: for this, MTT in sterile PBS (0.2% glucose), pH 7.4, was added to the macrophages, to a final concentration of 0.1 mg/mL, and the cells were then incubated at 37 °C for 3 h. After removing the medium, the formazan crystals were dissolved in 180 μL of DMSO and 20 μL of MTT buffer (0.1 M glycine, 0.1 M NaCl, 0.5 mM EDTA, pH 10.5), and the absorbance was measured at 560 nm. The IC50 was defined as the drug concentration at which 50% of the cells were viable, relative to the control (no drug added), and was determined by analysis using OriginLab 8.5 Corporation, Northampton, MA, USA, sigmoidal regression (% of viable cells compared to the logarithm of the compound concentration). The tests were performed in triplicate in two independent experiments.
# [3] = target: T1, Homo sapiens triosephosphate isomerase (HsTIM) (Homo sapiens, UniProt P60174); experiment: Enzymatic activity of TIM, coupled enzyme assay; type: biochemical
# T1 construct: made in house; host or cells: Escherichia coli
# T1 sequence (P60174 whole entry): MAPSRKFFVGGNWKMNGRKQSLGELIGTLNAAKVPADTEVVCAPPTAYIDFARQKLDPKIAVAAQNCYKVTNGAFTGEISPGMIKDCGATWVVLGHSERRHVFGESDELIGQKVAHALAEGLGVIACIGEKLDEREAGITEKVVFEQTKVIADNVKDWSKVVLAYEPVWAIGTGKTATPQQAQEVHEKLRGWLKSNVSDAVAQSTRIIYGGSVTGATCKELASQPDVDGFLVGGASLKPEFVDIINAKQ
# Protocol: as §1
# [4] = system: R. microplus; experiment: Acaricidal activity on R. microplus (LIT and AIT, overall statement); type: in vivo; settings: LIT 1 mM and AIT 1.5 mM
# Protocol: After immersion, the fully engorged females were lightly dried with absorbent paper. […] The tubes carrying the eggs were closed with hydrophilic cotton, and were returned to the incubator chamber under the same conditions until the eggs hatched. The reproductive efficacy, as well as % control of each compound on R. microplus, was calculated according to published reports. The results were verified in two independent experiments. This assay was performed based on the method of Castro-Janer et al., 2011. […] The tubes were incubated in the same conditions as described above. The larvae were ready for testing after 14 to 21 days from egg-hatching. For the test, the compounds were diluted in DMSO, and were later resuspended in distilled water, always using 15% DMSO of the final solution volume. […] For the immersion procedure, tubes containing the larvae were placed vertically, without the cotton plug, and the larvae were taken with a brush from the top of the tube, ensuring they were viable. A cluster with a diameter of 2 mm of larvae was collected with a brush, and was later immersed in each solution, as well as in both control solutions, for 10 min. After this time, the solutions were drained, and the larvae were placed in 8.5 cm × 7.5 cm Whatman No. 1 filter papers. The filters were folded in the middle of the 8.5 cm side, and closed with 3 bulldog clips, forming packets. These packets were incubated for 24 h, under the same conditions as described previously, and then the percent of mortality was determined, considering it as the % of the control.
# [5] = system: embryonic cell line BME26; experiment: Phenotypic screening on BME26 cell cultures (MTT viability); type: cell-based, R. microplus; settings: for inhibition at 100 µM: read-out: % of Growth Inhibition
# Protocol: The embryonic cell line BME26 from R. microplus (Centro de Biotecnologia, Universidade Federal do Rio Grande do Sul, Porto Alegre, RS, Brazil) was grown as adherent monolayers in a complete medium, as described previously, which consisted of L-15B300 medium supplemented with 5% heat-inactivated Fetal Bovine Serum (FBS) (Gibco Co., Grand Island, NY), 10% Tryptose Phosphate Broth (TPB) (BD), penicillin (100 U/mL), streptomycin ([…], Gibco Co., Grand Island, NY, USA), and 0.1% bovine lipoprotein concentrate (ICN), (pH 7.2). The suspension of embryonic BME26 cells from R. microplus was seeded into 24-well plates (5 × 10^5 cells/well) to a final volume of 500 μL in a complete medium, and allowed to attach. After 24 h incubation at 34 °C, the extracts (100 µg/mL final concentration) and the compounds were added to the final concentrations indicated (1–100 µM), and 0.05% dimethylsulfoxide (DMSO) was used in the negative control wells. After 24 h of treatment, 50 μL of 3-(4,5-dimethylthiazol-2-yl)-2,5-diphenyltetrazolium bromide (MTT) prepared in serum-free medium (5 mg/mL) was added to each well. The media were discarded after 2 additional hours of incubation, and 1 mL of acid-isopropyl alcohol (0.15% HCl in isopropyl alcohol) was added to dissolve the formazan crystals. The mixture was transferred to 1.5 mL tubes, centrifuged at 6000× g for 15 min, and the clear supernatant was collected in new tubes for absorbance measurement at 570 nm using quartz cuvettes in a UVmini-1240 UV–vis spectrophotometer (Shimadzu, Japan). Absorbance values of the control treatment were used for normalization (100% viability). The activity was determined by analysis using OriginLab8.5® sigmoidal regression (% of viable cells compared to the logarithm of the compound concentration). The half-maximal inhibitory concentration (IC50), defined as the drug concentration at which 50% of the cells were viable relative to the control (no drug added), was used as a measurement of activity. These experiments were performed in triplicate for each compound.
# [6] = system: fully engorged females of the Mozo susceptible strain of R. microplus; experiment: Adult Immersion Test (AIT); type: in vivo; settings: compounds 1.5 mM, 15 min immersion, 14 days
# Protocol: This essay was performed based on Drummond et al., 1973, as each group of 5 fully engorged females of the Mozo susceptible strain of R. microplus was immersed in 50 mL tubes containing 10 mL of compounds at different concentrations (0.5, 1, 1.5, 2, 3.5 mM) for 15 min in four replicates. Four negative control groups were used (DMSO 10%). After immersion, the fully engorged females were lightly dried with absorbent paper. They were then placed in 100 mm disposable Petri dishes with their respective identification, and immediately incubated at 27 °C in an atmosphere with relative humidity (RH) of 85-90% for 14 days. […] The tubes carrying the eggs were closed with hydrophilic cotton, and were returned to the incubator chamber under the same conditions until the eggs hatched. The reproductive efficacy, as well as % control of each compound on R. microplus, was calculated according to published reports. The results were verified in two independent experiments.
# [7] = BME26 cells, 24 h, MTT, read-out: IC50
# [8] = synthetic compounds at 100 μM, BME26, 24 h
# [9] = Mus musculus, J774.1, cytotoxicity
SMILES,IC50 ([1]; read-out: IC50) [µM],acaricidal activity (in words) [4],"IC50 [5, 7] [µM]","inhibition at 100 µM [5, 8] [%]",IC50 ([2]; Mus musculus) [µM],other results
COc1ccc(/C=C2\CCCC3C2=NN(c2ccccn2)C3c2ccc(OC)cc2)cc1 (stereo not drawn) [Dm97],–,–,–,–,–,inhibition at 100 µM [1]: 0%
"COc1cc(/C=C/C(=O)CC(=O)/C=C/[c-]2cccc2)ccc1O.[Fe+2].c1cc[cH-]c1 [Mar105, [(1E,6E)-7-(4-hydroxy-3-methoxyphenyl)-3,5-dioxo-1,6-heptadien-1-yl]ferrocene]",10 ± 1,did not show reproducible acaricidal activity,–,–,–,EC50 ([2]; cytotoxicity): > 25 µM; % Inhibition of Enzymatic Activity of HsTIM at 10 µM ([3]; at 10 µM): 0%
C=CCn1c(-c2ccc(Cl)cc2)cs/c1=N/N=C/c1cccs1 [compound 133],–,–,> 50,71,> 50,–
Nc1ccc2c(c1)[n+]([O-])c1cc(Br)ccc1[n+]2[O-] [compound 181],–,–,–,90,< 25,–
[O-][n+]1c2ccc(O)cc2[n+]([O-])c2cc(Cl)c(Cl)cc21 [compound 183],–,–,–,62,< 25,–
C=CCn1c(-c2ccc(Cl)cc2)cs\c1=N/N=C/C=C/c1ccco1 [compound 266],–,acaricidal potential against R. microplus similar to Amitraz,> 100,77,> 50,–
O=C(Oc1ccccc1)N1CCN(C(=O)Oc2ccccc2)CC1 [compound 715],–,–,–,–,–,IC50 ([5]; 24 h): > 50 µM; inhibition at 100 µM ([5]; 24 h): 64%
O=C(/C=C/c1ccco1)/C=C/c1ccco1 [compound 795],–,acaricidal potential,20 ± 3,80,> 50,% of Mortality AIT [6]: 70 ± 7%
CC(/C=C/C(=O)/C=C/C(C)=C/c1ccco1)=C\c1ccco1 [compound 809],–,–,> 100,50,> 50,–
Cc1ccc(/C=C/C=N/N2CCN(C/C=C/c3ccccc3)CC2)o1 [compound 903],–,–,> 50,75,> 50,% of Mortality AIT [6]: 10 ± 1%
"COc1cc(/C=C/C(=O)CC(=O)/C=C/c2ccc(O)c(OC)c2)ccc1O [compound 906, curcumin]",–,acaricidal potential against R. microplus similar to Amitraz,24 ± 3,95,< 25,% of Mortality AIT [6]: 60 ± 8%
C(=C\c1ccco1)/C=N/N1CCN(C/C=C/c2ccccc2)CC1 [compound 912],–,–,> 50,52,> 50,% of Mortality AIT [6]: 30 ± 8%
O=c1cc(O)n(Cc2ccccc2)c(=S)n1Cc1ccccc1 [compound 1088],> 50,–,–,–,–,–
O=C(N/N=C/C=C/c1ccco1)c1cnn(-c2ccccc2)c1 [compound 1366],–,–,–,–,–,inhibition at 100 µM [1]: 38%
CC(/C=N/NC(=[Se])NCCN1CCOCC1)=C\c1ccco1 [compound 1378],–,–,–,–,–,IC50 ([1]; IC50 (µM)): 30 µM; inhibition at 100 µM [1]: 77%; inhibition at 10 µM [3]: 0%
FC(F)(F)C1=CSC(Nc2ccccc2)N1Cc1ccco1 (stereo not drawn) [compound 1385],< 10,did not show reproducible acaricidal activity,–,–,–,"EC50 [2, 9]: > 50 µM; inhibition at 10 µM [1]: 89%"
CN=C1C=CC(=C(c2ccc(N(C)C)cc2)c2ccc(N(C)C)cc2)C=C1 [compound 1386],< 10,did not show reproducible acaricidal activity,–,–,–,inhibition at 10 µM [1]: 100%
COc1ccc(/C=C/c2ccc3no[n+]([O-])c3c2)cc1 [compound 1404],< 10,did not show reproducible acaricidal activity,–,–,–,"EC50 [2, 9]: > 50 µM; inhibition at 10 µM [1]: 100%"
O=C1C(Cl)=C(Oc2cccc3ccccc23)C(=O)c2ccccc21 [compound 1408],> 50,–,–,–,–,inhibition at 100 µM [1]: 72%
